Measured values taken from patent US5284850A, “Terpene amino alcohols and medicinal uses thereof” (Kuraray Co., Ltd., priority 1985, dated 1994).
Counter-ions that a name gives are not always drawn.

Assays:
[1] = system: CO2 -treated mice; test: Effect of improving the memories of amnesia models: CO2-induced amnesia, latency; assay type: in vivo, mice of ddK strain; conditions: 100 mg/kg oral
Excerpt: (§1) The mice were allowed to take feeds and water freely. The device comprised a dark chamber (a rectangular box 20 cm high, with a floor grid, 12 cm×15 cm) and a bright chamber (a box with an open top and a floor grid, 15 cm×15 cm, surrounded by rectangular walls, 15 cm^w ×20 cm^H, on four sides). The two chambers were in contact with each other sharing a common surface of 15 cm×20 cm which is provided with an opening through which the mouse could move freely. A stainless steel wire, which was connected to an electric impulse apparatus (manufactured by Nippon Medical and Chemical Instruments Co., Ltd.), was placed on the floor grid in the dark chamber. The bright chamber was illuminated with a 60 W electric bulb from a height of about 45 cm above the floor grid. Each mouse was placed on the floor grid in the bright chamber. Immediately after the mouse (four limbs) entered the dark chamber, it was loaded with an electroshock cf DC 50 V through the floor grid for about three seconds. Immediately after electroshock loading, the mouse was taken out from the dark chamber. […] Immediately after the acquisition trials, each mouse was left in a container filled with carbon dioxide for a period of 8 seconds to induce amnesia. A 5% aqueous suspension of each test compound in gum arabic solution was administered orally to mice immediately after carbon dioxide loading or to mice immediately after completion of the acquisition trials following scopolamine administration.

[2] = system: Scopolamine-treated mice; test: Effect of improving the memories of amnesia models: scopolamine-induced amnesia, latency; assay type: in vivo, mice of ddK strain; conditions: 100 mg/kg oral; for improvement of shortening of latency induced by scopolamine (in words): compared with calcium hopantenate and pramiracetam
Excerpt: as §1, with “Scopolamine, […],” for “Immediately after the acquisition trials, each mouse”, “administered intraperitoneally to mice” for “left in a container filled with carbon dioxide for a period of 8 seconds”, “amnesia 20 minutes before initiation of acquisition trials.” for “amnesia.”

[3] = system: sensitized bronchial muscle; test: Antiallergic action: inhibition of egg albumin-induced contraction of sensitized guinea pig bronchial muscle; assay type: tissue-based, guinea pigs of Hartley strain; conditions: Cavia porcellus; for inhibition at 100 µM: 10^-4 M; for inhibition at 10 µM: 10^-5 M; for inhibition at 1 µM: 10^-6 M; for inhibition at 0.1 µM: 10^-7 M; for inhibition at 0.01 µM: 10^-8 M
Experimental: Male guinea pigs of Hartley strain (body weight: about 250 g) were intraperitoneally or intramuscularly dosed with egg albumin (dose 100 mg/kg) and the same procedure was repeated after 3 days. After 3 to 4 weeks, the guinea pi-as were bled to death and the sensitized bronchial muscle was excised and cut into 1.5 mm thick rings. Three rings were joined to prepare a specimen. The specimen was suspended in a tissue bath and a load of 1 g was applied. […] After stabilization of the specimen (after about 1 hour), histamine hydrochloride was added to the bath at a final concentration of 10^-5 M. The contraction curve was recorded. After the contraction had been stabilized, the specimen was washed with 3 portions of Ringer's solution at 10-minute intervals to stabilize the contraction (about 1 hour was required). Then, the test compound was added to the tissue bath and, after an interval of 10 minutes, 5 mg/ml of egg albumin was added. The contraction amplitude of the specimen was measured and the percent inhibition was calculated according to the following formula. [formula] A: Contraction amplitude of control group when egg albumin is added A': Contraction amplitude of dosage group when egg albumin is added
H: Contraction amplitude of control group when histamine hydrochloride is added
H': Contraction amplitude of dosage group when histamine hydrochloride is added

[4] = system: mice of ddK strain; test: KCN anoxia test; assay type: in vivo; conditions: for Number of survivals/Number of mice used / Survival rate (%): KCN 2.65 mg/kg i.v. after 30 minutes, 180 seconds; for Number of survivals/Number of mice used: control 0/8; for Survival rate (%): control 0; for anti-anoxic action (in words): KCN anoxia test
[5] = Acute toxicity (LD50); conditions: mouse, in vivo; male ddK mice, 20-23 g, 10 animals per group, oral
Excerpt: Toxicity studies also made it clear that the terpene amino alcohols according to the present invention are of low toxicity.

[6] = cited from earlier work; for side effects: prior art
[7] = system: cerebral glucose uptake and oxidation of succinic acid in mitochondria; conditions: cited from earlier work
[8] = CO2-treated control 106.5 ± 24.9, normal mice 394.2 ± 84.0
[9] = scopolamine-treated control 83.5 ± 21.5, normal mice 394.2 ± 84.0
[10] = CO2-treated control 37.6 ± 19.6
[11] = scopolamine-treated control 54.6 ± 14.5
[12] = 100 mg/kg i.p., *P < 0.05, **P < 0.01

## CC(C)(CO)[C@@H](O)C(=O)NCCCC(=O)O [Calcium hopantenate, calcium hopantenate, reference compound]
[1]
  memory activating action, CO2-induced amnesia (in words): failed to show a significant memory activating action
[1]; [8]
  Latency, Mean ± S.E.: 115.5 ± 40.6 s
[2]; [9]
  Latency, Mean ± S.E.: 80.5 ± 17.2 s

## CC(C)CCCC(C)CCCC(C)(O)C(O)CN(C)C(=O)c1cccnc1 (centres unmarked) [Compound (15), N-methyl-N-(3,7,11-trimethyl-2,3-hydroxydodecyl)nicotinamide]
[3]
  inhibition at 100 µM: 72.5%
  inhibition at 10 µM: 67%
  inhibition at 1 µM: 93%
[1]
  memory activating action, CO2-induced amnesia (in words): showed a tendency to activate memory
[1]; [10]
  Latency, Mean ± S.E.: 163.9 ± 49.1 s
[2]; [11]
  Latency, Mean ± S.E.: 65.2 ± 20.2 s
[4]; 100 mg/kg i.p.
  Number of survivals/Number of mice used: 7/9
[4]; [12]
  Survival rate (%): 77.8%
[4]
  anti-anoxic action (in words): significantly high anti-anoxic action

## CC(C)CCCC(C)CCCC(C)CCCC(C)(O)C(O)CN(C)C (centres unmarked) [Compound (32)]
[3]
  inhibition at 10 µM: 40%
  inhibition at 1 µM: 61.1%
  inhibition at 0.1 µM: 25%
  inhibition at 0.01 µM: 10%
[5]
  LD50: 3880 mg/kg

## CC(C)CCCC(C)CCCC(C)CCCC(C)(O)C(O)CN(C)CCO (centres unmarked) [Compound (35)]
[3]
  inhibition at 10 µM: 27.1%
  inhibition at 1 µM: 85.5%
  inhibition at 0.1 µM: 35%
  inhibition at 0.01 µM: 22%
[1]
  memory activating action, CO2-induced amnesia (in words): showed a tendency to activate memory
[1]; CO2-treated control 138.2 ± 43.6, normal mice 382.4 ± 83.6
  Latency, Mean ± S.E.: 258.4 ± 94.5 s
[2]
  improvement of shortening of latency induced by scopolamine (in words): significantly improved the shortening of latency induced by scopolamine
[2]; scopolamine-treated control 169.0 ± 53.0, normal mice 382.4 ± 83.6
  Latency, Mean ± S.E.: 320.2 ± 66.2 s
[4]; 100 mg/kg i.p.
  Number of survivals/Number of mice used: 8/9
[4]; [12]
  Survival rate (%): 88.9%
[4]
  anti-anoxic action (in words): significantly high anti-anoxic action

## CC(C)CCCC(C)CCCC(C)CCCC(C)(O)C(O)CN(C)CCOC(=O)c1cccnc1 (centres unmarked) [Compound (36), 2-[N-(2,3-dihydroxy-3,7,11,15-tetramethylhexadecyl)-N-methylamino]ethyl nicotinate]
[3]
  inhibition at 10 µM: 45%
  inhibition at 1 µM: 20%
  inhibition at 0.1 µM: 8%
[1]
  memory activating action, CO2-induced amnesia (in words): very significantly improved the shortening of latency induced by carbon dioxide
[1]; [10]
  Latency, Mean ± S.E.: 216.0 ± 69.0 s
[1]; CO2-treated control 139.4 ± 27.5, normal mice 375.7 ± 74.9, *P < 0.05
  Latency, Mean ± S.E.: 336.6 ± 77.8 s
[2]
  improvement of shortening of latency induced by scopolamine (in words): significantly improved the shortening of latency induced by scopolamine
[2]; [11]
  Latency, Mean ± S.E.: 78.5 ± 26.9 s
[2]; scopolamine-treated control 166.7 ± 36.7, normal mice 375.7 ± 74.9, *P < 0.05
  Latency, Mean ± S.E.: 336.2 ± 55.4 s

## O=C(O)c1cc(=O)c2c(OCC(O)COc3cccc4oc(C(=O)O)cc(=O)c34)cccc2o1 [Disodium cromoglicate, disodium cromoglicate, reference compound]
[3]
  inhibition at 100 µM: 32.1%
  inhibition at 10 µM: 21%
  inhibition at 1 µM: 7.8%
  inhibition at 0.1 µM: 0%
  inhibition at 0.01 µM: 0%
[6]; administered by the oral route
  antiallergic effect (in words): does not produce an antiallergic effect

## CC(C)CCCC(C)NC(C)C (centres unmarked) [Iproheptine hydrochloride, iproheptine hydrochloride]
[6]
  side effects: drowsiness and nausea

## CN1CCC(=C2c3ccccc3CC(=O)c3sccc32)CC1 [Ketotifen, ketotifen]
[6]; delayed effect type
  time until antiallergic effect manifests itself: 4-6 weeks
[6]
  side effects: drowsiness

## CC(C)N(CCNC(=O)CN1CCCC1=O)C(C)C [Pramiracetam, pramiracetam, reference compound]
[1]
  memory activating action, CO2-induced amnesia (in words): failed to show a significant memory activating action
[1]; [8]
  Latency, Mean ± S.E.: 175.8 ± 42.9 s
[2]; [9]
  Latency, Mean ± S.E.: 98.1 ± 24.9 s

## COc1ccc(/C=C/C(=O)Nc2ccccc2C(=O)O)cc1OC [Tranilast, tranilast, reference compound]
[3]
  inhibition at 100 µM: 32.1%
  inhibition at 10 µM: 54.8%
  inhibition at 1 µM: 21%
  inhibition at 0.1 µM: 0%
  inhibition at 0.01 µM: 0%
[6]
  side effects: cystitis-like symptoms such as hematuria, pyuria and dysuria

## dihydroergotoxine mesilate [reference compound]
[7]
  reported cerebral actions (in words): promotes cerebral glucose uptake and oxidation of succinic acid in mitochondria and increases the cerebral blood flow
[4]; 3 mg/kg i.p.
  Survival rate (%): 10.0%
  Number of survivals/Number of mice used: 1/10
[4]
  anti-anoxic action (in words): not sufficiently remarkable
